Assay results taken from ChEMBL document CHEMBL1132633, “Secondary structure peptide mimetics: design, synthesis, and evaluation of beta-strand mimetic thrombin inhibitors” (J Med Chem, 1999).
Values belong to the compound of their own block, whether it stands above or below them.

Experiments:
[1] = molecular target: T1, Prothrombin (Homo sapiens, UniProt P00734)
Description: Inhibitory constant on rate against thrombin.

[2] = molecular target: Urokinase-type plasminogen activator (Homo sapiens, UniProt P00749); experiment: Inhibitory concentration against Urokinase-type plasminogen activator
[3] = molecular target: T2, Coagulation factor X (Homo sapiens, UniProt P00742); experiment: Inhibitory concentration against Coagulation factor Xa
[4] = molecular target: T3, Plasminogen (Rattus norvegicus, UniProt Q01177); experiment: Inhibitory concentration against plasmin
[5] = molecular target: T1, Prothrombin; experiment: Inhibitory concentration against thrombin.
[6] = molecular target: T4, Tissue-type plasminogen activator (Homo sapiens, UniProt P00750); experiment: Compound was evaluated for the inhibition of Tissue type plasminogen activator (tissue plasminogen activator)
[7] = molecular target: T5, Coagulation factor VII (Homo sapiens, UniProt P08709); experiment: Inhibitory concentration against coagulation factor VIIa
T5 sequence (P08709 whole entry): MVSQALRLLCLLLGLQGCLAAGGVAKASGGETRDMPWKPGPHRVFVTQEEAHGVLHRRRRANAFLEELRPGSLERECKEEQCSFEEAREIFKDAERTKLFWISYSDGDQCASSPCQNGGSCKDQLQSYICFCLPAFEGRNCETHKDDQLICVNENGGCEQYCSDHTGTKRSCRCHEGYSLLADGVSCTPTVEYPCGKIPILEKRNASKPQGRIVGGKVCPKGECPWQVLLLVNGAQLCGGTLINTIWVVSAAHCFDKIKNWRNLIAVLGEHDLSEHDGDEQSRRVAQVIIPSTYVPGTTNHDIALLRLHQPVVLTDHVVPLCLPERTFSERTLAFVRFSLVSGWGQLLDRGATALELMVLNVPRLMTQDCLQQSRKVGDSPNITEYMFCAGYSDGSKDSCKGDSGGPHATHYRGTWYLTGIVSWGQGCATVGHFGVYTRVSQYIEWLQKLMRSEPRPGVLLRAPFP

[8] = molecular target: T6, Serine protease 1 (Bos taurus, UniProt P00760); experiment: Inhibitory concentration against trypsin.
T6 sequence (P00760 whole entry): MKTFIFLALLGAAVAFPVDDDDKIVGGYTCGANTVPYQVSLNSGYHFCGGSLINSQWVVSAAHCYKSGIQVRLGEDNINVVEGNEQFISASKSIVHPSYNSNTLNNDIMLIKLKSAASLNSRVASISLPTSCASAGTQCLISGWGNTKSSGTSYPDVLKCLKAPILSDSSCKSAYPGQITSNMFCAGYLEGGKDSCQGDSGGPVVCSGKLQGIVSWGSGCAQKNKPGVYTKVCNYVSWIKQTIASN

[9] = molecular target: T3, Plasminogen; experiment: Inhibition constant against plasmin
[10] = molecular target: T2, Coagulation factor X; experiment: Inhibition constant against Coagulation factor Xa
[11] = molecular target: T5, Coagulation factor VII; experiment: Inhibition constant against coagulation factor VIIa
[12] = molecular target: T4, Tissue-type plasminogen activator; experiment: Inhibitory concentration against Tissue type plasminogen activator

T4 sequence (P00750 whole entry): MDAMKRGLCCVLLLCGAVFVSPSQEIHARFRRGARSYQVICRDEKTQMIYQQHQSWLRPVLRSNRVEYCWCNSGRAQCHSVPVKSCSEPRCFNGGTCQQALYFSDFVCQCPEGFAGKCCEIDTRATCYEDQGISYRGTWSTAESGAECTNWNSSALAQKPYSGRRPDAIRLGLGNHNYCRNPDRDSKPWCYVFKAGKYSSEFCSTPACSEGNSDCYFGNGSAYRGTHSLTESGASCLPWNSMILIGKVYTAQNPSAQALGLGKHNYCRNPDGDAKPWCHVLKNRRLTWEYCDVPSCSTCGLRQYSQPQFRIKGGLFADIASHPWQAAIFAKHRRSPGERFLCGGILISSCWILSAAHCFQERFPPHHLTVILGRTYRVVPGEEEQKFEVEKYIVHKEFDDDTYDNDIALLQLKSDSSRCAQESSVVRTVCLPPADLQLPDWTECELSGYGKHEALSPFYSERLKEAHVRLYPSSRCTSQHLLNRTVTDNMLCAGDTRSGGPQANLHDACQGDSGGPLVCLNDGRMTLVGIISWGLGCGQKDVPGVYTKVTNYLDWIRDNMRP
T3 sequence (Q01177 97-581 limits assumed): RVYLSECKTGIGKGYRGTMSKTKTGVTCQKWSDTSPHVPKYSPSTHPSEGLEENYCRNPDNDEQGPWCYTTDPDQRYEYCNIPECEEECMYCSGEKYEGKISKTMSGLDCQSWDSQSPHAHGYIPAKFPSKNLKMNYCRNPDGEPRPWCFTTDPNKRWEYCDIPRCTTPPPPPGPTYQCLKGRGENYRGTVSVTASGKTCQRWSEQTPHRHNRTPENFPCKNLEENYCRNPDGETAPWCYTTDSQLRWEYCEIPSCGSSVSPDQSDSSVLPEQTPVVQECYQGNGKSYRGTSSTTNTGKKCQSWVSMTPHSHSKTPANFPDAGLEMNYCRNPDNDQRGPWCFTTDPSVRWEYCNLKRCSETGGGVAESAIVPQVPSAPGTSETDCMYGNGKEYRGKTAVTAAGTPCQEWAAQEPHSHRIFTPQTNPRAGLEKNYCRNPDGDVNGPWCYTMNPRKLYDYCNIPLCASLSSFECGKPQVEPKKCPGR
T3 sequence (Q01177 582-812 limits assumed): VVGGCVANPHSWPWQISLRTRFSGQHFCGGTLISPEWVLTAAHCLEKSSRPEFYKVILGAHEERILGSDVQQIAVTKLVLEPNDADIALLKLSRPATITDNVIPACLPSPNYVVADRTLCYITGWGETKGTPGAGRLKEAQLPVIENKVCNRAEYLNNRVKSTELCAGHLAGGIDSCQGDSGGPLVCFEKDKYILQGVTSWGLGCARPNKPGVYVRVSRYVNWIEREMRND
T2 sequence (P00742 41-179 limits assumed): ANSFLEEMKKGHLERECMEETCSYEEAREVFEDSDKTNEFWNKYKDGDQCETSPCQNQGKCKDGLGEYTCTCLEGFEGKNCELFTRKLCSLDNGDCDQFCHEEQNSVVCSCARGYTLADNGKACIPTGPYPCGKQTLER
T2 sequence (P00742 235-488 limits assumed): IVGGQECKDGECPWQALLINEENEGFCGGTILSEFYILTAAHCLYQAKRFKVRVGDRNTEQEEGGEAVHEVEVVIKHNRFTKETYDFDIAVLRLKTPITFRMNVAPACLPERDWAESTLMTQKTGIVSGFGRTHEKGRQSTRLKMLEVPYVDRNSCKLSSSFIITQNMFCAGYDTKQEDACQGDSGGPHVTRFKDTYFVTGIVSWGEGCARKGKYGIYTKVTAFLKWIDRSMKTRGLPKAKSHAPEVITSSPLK

Structure (SMILES): N=C(N)NCCC[C@H](NC(=O)[C@@H]1CCC2CC[C@@](N)(Cc3ccccc3)CN21)C(=O)c1nc2ccccc2s1 (stereo in doubt; form 2) [listing 1 of 2 here]
k on [1]: > 1e+07 M⁻¹ s⁻¹

Structure (SMILES): NC(N)=NCCC[C@@H](CCl)NC(=O)[C@@H]1CCCN1C(=O)[C@H](N)Cc1ccccc1
IC50 [2]: 508 nM
IC50 [3]: 165 nM
IC50 [4]: 699 nM
IC50 [5]: 1.5 nM
IC50 [6]: 106 nM
IC50 [7]: 200 nM

Structure (SMILES): N=C(N)NCCC[C@H](NC(=O)[C@@H]1CCC2CC[C@@](N)(Cc3ccccc3)CN21)C(=O)c1nc2ccccc2s1 (stereo in doubt; form 2) [listing 2 of 2 here]
Ki [9]: 251 nM
Ki [2]: 335 nM
Ki [10]: 19.3 nM
Ki [8]: 0.23 nM
Ki [11]: 200 nM
Ki [5]: 0.85 nM
Ki [12]: 93 nM

Structure (SMILES): N=C(N)NCCC[C@H](NC(=O)[C@@H]1CCN2CC[C@@](N)(Cc3ccccc3)CN12)C(=O)c1nc2ccccc2s1
Ki [9]: 415 nM
Ki [2]: 600 nM
Ki [10]: 270 nM
Ki [8]: 0.64 nM
Ki [11]: 270 nM
k on [1]: > 1e+07 M⁻¹ s⁻¹
Ki [12]: 495 nM

Structure (SMILES): N=C(N)NCCC[C@H](NC(=O)[C@@H]1CCC2CC[C@@](N)(Cc3ccccc3)CN21)C(=O)c1nc2ccccc2s1 (stereo in doubt; form 1) [listing 1 of 2 here]
Ki [5]: 10 nM

Structure (SMILES): N=C(N)NCCC[C@H](NC(=O)[C@@H]1CCC2CC[C@@](N)(Cc3ccccc3)CN21)C(=O)c1nc2ccccc2s1 (stereo in doubt; form 1) [listing 2 of 2 here]
k on [1]: > 1e+07 M⁻¹ s⁻¹

Structure (SMILES): N=C(N)NCCC[C@@H](CCl)NC(=O)[C@@H]1CCN2CC[C@@](N)(Cc3ccccc3)CN12
IC50 [2]: 927 nM
IC50 [3]: 385 nM
IC50 [4]: 978 nM
k on [1]: 2.4e+06 M⁻¹ s⁻¹
IC50 [5]: 1.2 nM
IC50 [12]: 632 nM
IC50 [7]: 140 nM

The remaining lines, values ahead:

Ki [8]: 0.027 nM
k on [1]: 640000 M⁻¹ s⁻¹
Ki [5]: 0.071 nM
Structure (SMILES): N=C(N)NCCC[C@H](NC(=O)[C@@H]1CCN2CC[C@@](N)(Cc3ccccc3)CN12)C(=O)C(=O)NCCc1ccccc1

k on [1]: 380000 M⁻¹ s⁻¹
Ki [5]: 0.31 nM
Structure (SMILES): N=C(N)NCCC[C@H](NC(=O)[C@@H]1CCN2CC[C@@](N)(Cc3ccccc3)CN12)C(=O)C(=O)NCCc1ccc(Cl)cc1

k on [1]: > 1e+07 M⁻¹ s⁻¹
Ki [5]: 2.4 nM
Structure (SMILES): N=C(N)NCCC[C@H](NC(=O)[C@@H]1CCN2CC[C@@](N)(Cc3ccccc3)CN12)C(=O)c1nccs1

k on [1]: 250000 M⁻¹ s⁻¹
Structure (SMILES): COc1ccc(CCNC(=O)C(=O)[C@H](CCCN=C(N)N)NC(=O)[C@@H]2CCN3CC[C@@](N)(Cc4ccccc4)CN23)cc1

Ki [5]: 0.45 nM
Structure (SMILES): COc1ccc(CCNC(=O)C(=O)[C@H](CCCNC(=N)N)NC(=O)[C@@H]2CCN3CC[C@@](N)(Cc4ccccc4)CN23)cc1

k on [1]: 880000 M⁻¹ s⁻¹
Structure (SMILES): N=C(N)NCCC[C@H](NC(=O)[C@@H]1CCN2CC[C@@](N)(Cc3ccccc3)CN12)C(=O)C(=O)NCc1ccccc1

Ki [5]: 2000 nM
Structure (SMILES): NCCCC[C@H](NC(=O)[C@@H]1CCN2CC[C@@](N)(Cc3ccccc3)CN12)C(=O)C(=O)NCc1ccccc1
